# According to ChEMBL document CHEMBL3352151, “In vitro and in vivo antibacterial evaluation and mechanistic study of ornithine based small cationic lipopeptides against antibiotic resistant clinical isolates” (Eur J Med Chem, 2014):
# Calls of active or inactive are those of the source. No cut-off for these calls is given here. Square brackets hold non-standard residues; d marks the D form. Peptide text beside a SMILES is read from it. * marks the point of attachment. Stearoyl = CCCCCCCCCCCCCCCCCC(=O)*; Palmitoyl = CCCCCCCCCCCCCCCC(=O)*; Myristoyl = CCCCCCCCCCCCCC(=O)*; Orn = NCCC[CH](N)C(=O)O
# Experiments:
# Enterococcus faecalis [1] = assay: Antibacterial activity against clinical isolates of gentamicin-resistant Enterococcus faecalis GMCH/R-Gen011 after overnight incubation by microdilution broth assay; type: functional
# Acinetobacter baumannii [2] = assay: Antibacterial activity against clinical isolates of Acinetobacter baumannii GMCH/B0083 after overnight incubation by microdilution broth assay; type: functional
# Escherichia coli [3] = assay: Antibacterial activity against clinical isolates of imipenem-resistant Escherichia coli PGI/DML02292 after overnight incubation by microdilution broth assay; type: functional
# Streptococcus pneumoniae [4] = assay: Antibacterial activity against clinical isolates of Streptococcus pneumoniae PGI/DML02468 after overnight incubation by microdilution broth assay; type: functional
# Klebsiella pneumoniae [5] = assay: Antibacterial activity against clinical isolates of Klebsiella pneumoniae GMCH/B0127 after overnight incubation by microdilution broth assay; type: functional
# Enterococcus faecalis [6] = assay: Antibacterial activity against clinical isolates of Enterococcus faecalis GMCH/B0091 after overnight incubation by microdilution broth assay; type: functional
# Escherichia coli [7] = assay: Antibacterial activity against clinical isolates of Escherichia coli PGI/DML02250 after overnight incubation by microdilution broth assay; type: functional
# Enterococcus faecium [8] = assay: Antibacterial activity against clinical isolates of penicillin-resistant Enterococcus faecium GMCH/R-Pen003 after overnight incubation by microdilution broth assay; type: functional
# Pseudomonas aeruginosa [9] = assay: Antibacterial activity against clinical isolates of Pseudomonas aeruginosa PGI/DML02084 after overnight incubation by microdilution broth assay; type: functional
# [10] = tested on: Staphylococcus epidermidis; assay: Antibacterial activity against clinical isolates of Staphylococcus epidermidis GMCH/B0057 after overnight incubation by microdilution broth assay; type: functional
# Haemophilus influenzae [11] = assay: Antibacterial activity against clinical isolates of ciprofloxacin-resistant Haemophilus influenzae PGI/DML01744 after overnight incubation by microdilution broth assay; type: functional
# Haemophilus influenzae [12] = assay: Antibacterial activity against clinical isolates of Haemophilus influenzae PGI/DML01751 after overnight incubation by microdilution broth assay; type: functional
# [13] = tested on: Staphylococcus epidermidis; assay: Antibacterial activity against clinical isolates of ampicillin-resistant Staphylococcus epidermidis GMCH/R-Amp008 after overnight incubation by microdilution broth assay; type: functional
# Enterococcus faecium [14] = assay: Antibacterial activity against clinical isolates of Enterococcus faecium GMCH/B0102 after overnight incubation by microdilution broth assay; type: functional
# [15] = Cytotoxicity against human HaCaT cells assessed as cell viability at 100 ug/ml after 18 hrs by MTT assay; type: cell-based; details: read-out: Activity
# Staphylococcus aureus [16] = assay: Antibacterial activity against clinical isolates of methicillin-resistant Staphylococcus aureus PGI/DML03149 after overnight incubation by microdilution broth assay; type: functional
# [17] = Cytotoxicity against human HaCaT cells assessed as cell viability at 500 ug/ml after 18 hrs by MTT assay; type: cell-based; details: read-out: Activity
# Acinetobacter baumannii [18] = assay: Antibacterial activity against clinical isolates of imipenem-resistant Acinetobacter baumannii GMCH/R-Imi003 after overnight incubation by microdilution broth assay; type: functional
# Staphylococcus aureus [19] = assay: Antibacterial activity against clinical isolates of Staphylococcus aureus PGI/DML03054 after overnight incubation by microdilution broth assay; type: functional
# Klebsiella pneumoniae [20] = assay: Antibacterial activity against clinical isolates of kanamycin-resistant Klebsiella pneumoniae GMCH/R-Kan006 after overnight incubation by microdilution broth assay; type: functional
# Pseudomonas aeruginosa [21] = assay: Antibacterial activity against clinical isolates of streptomycin-resistant Pseudomonas aeruginosa PGI/DML01991 after overnight incubation by microdilution broth assay; type: functional
# Streptococcus pneumoniae [22] = assay: Antibacterial activity against clinical isolates of erythromycin-resistant Streptococcus pneumoniae PGI/DML02213 after overnight incubation by microdilution broth assay; type: functional
# Escherichia coli [23] = assay: Binding affinity to Escherichia coli PGI/DML02292 DNA at 12 ug/ml after 1 hr by agarose gel electrophoresis
# [24] = Membrane permeabilization activity assessed as release of calcein from liposomes at 1:50 lipopeptide:lipid molar ratio after 5 mins by fluorescence assay
# [25] = Membrane permeabilization activity assessed as release of calcein from liposomes at 1:10 lipopeptide:lipid molar ratio after 5 mins by fluorescence assay
# [26] = Membrane permeabilization activity assessed as release of calcein from liposomes after 5 mins by fluorescence assay
# Plasma = assay: Drug degradation in human plasma at 1 ug/ml after 24 hrs by RP-HPLC analysis; type: ADME, cell-free
Structure (SMILES),MIC (Enterococcus faecalis [1]) [µg/mL],MIC (Acinetobacter baumannii [2]) [µg/mL],MIC (Escherichia coli [3]) [µg/mL],MIC (Streptococcus pneumoniae [4]) [µg/mL],MIC (Klebsiella pneumoniae [5]) [µg/mL],MIC (Enterococcus faecalis [6]) [µg/mL],MIC (Escherichia coli [7]) [µg/mL],MIC (Enterococcus faecium [8]) [µg/mL],MIC (Pseudomonas aeruginosa [9]) [µg/mL],MIC [10] [µg/mL],MIC (Haemophilus influenzae [11]) [µg/mL],MIC (Haemophilus influenzae [12]) [µg/mL],MIC [13] [µg/mL],MIC (Enterococcus faecium [14]) [µg/mL],"viability at 18 h, 100 ug/ml [15] [%]",MIC (Staphylococcus aureus [16]) [µg/mL],"viability at 18 h, 500 ug/ml [17] [%]",MIC (Acinetobacter baumannii [18]) [µg/mL],MIC (Staphylococcus aureus [19]) [µg/mL],MIC (Klebsiella pneumoniae [20]) [µg/mL],also measured
CCCCCCCCCCCCCC(=O)NC(CCCN)C(=O)NC(CCCN)C(=O)NC(CCCN)C(=O)NC(CCCN)C(=O)NC(CCCN)C(N)=O (stereo not given) (Myristoyl-[Orn][Orn][Orn][Orn][Orn]-NH2; configuration not given here),10.5,8.25,6.25,3.5,6.2,1.5,2.5,6.21,1.5,7.5,15.5,12.5,12.5,3.1,> 80,12.5,> 80,6.5,10,7.5,MIC (Pseudomonas aeruginosa [21]): 4.25 µg/mL; MIC (Streptococcus pneumoniae [22]): 12.5 µg/mL
CCCCCCCCCCCCCCCC(=O)NC(CCCN)C(=O)NC(CCCN)C(=O)NC(CCCN)C(=O)NC(CCCN)C(N)=O (stereo not given) (Palmitoyl-[Orn][Orn][Orn][Orn]-NH2; configuration not given here),7.5,6.5,12.5,2.5,2,3.5,2,3.5,3,2.5,12.5,7.5,2,3.5,> 80,4.5,> 80,10,3.1,5.5,MIC (Pseudomonas aeruginosa [21]): 6.25 µg/mL; MIC (Streptococcus pneumoniae [22]): 10.5 µg/mL
CCCCCCCCCCCCCCCC(=O)NC(CCCN)C(=O)NC(CCCN)C(=O)NC(CCCN)C(=O)NC(CCCN)C(=O)NC(CCCN)C(N)=O (stereo not given) (Palmitoyl-[Orn][Orn][Orn][Orn][Orn]-NH2; configuration not given here),12.5,12.5,5,3.1,2.5,2,1.5,7.5,2,3.1,12.5,10,7.5,3,> 80,10,> 80,9.5,7.5,10,MIC (Pseudomonas aeruginosa [21]): 6.5 µg/mL; MIC (Streptococcus pneumoniae [22]): 7.5 µg/mL
CCCCCCCCCCCCCCCCCC(=O)NC(CCCN)C(=O)NC(CCCN)C(=O)NC(CCCN)C(=O)NC(CCCN)C(N)=O (stereo not given) (Stearoyl-[Orn][Orn][Orn][Orn]-NH2; configuration not given here),10,10,7.5,4,3.5,3.1,7.5,12.5,4.5,5.5,12.5,8,5,7.5,82,7.5,67,12.5,5,8,Activity (Escherichia coli [23]): inactive; Activity [24]: 43%; Activity [25]: 79%; Activity [26]: Dose-dependent effect; MIC (Pseudomonas aeruginosa [21]): 2 µg/mL; MIC (Streptococcus pneumoniae [22]): 12.5 µg/mL; Stability (Plasma): Stable
CCCCCCCCCCCCCCCCCC(=O)NC(CCCN)C(=O)NC(CCCN)C(=O)NC(CCCN)C(=O)NC(CCCN)C(=O)NC(CCCN)C(N)=O (stereo not given) (Stearoyl-[Orn][Orn][Orn][Orn][Orn]-NH2; configuration not given here),15,10,7.5,2.5,4,4.5,5,12.5,2.5,4.5,15,10,10.5,6.2,> 80,10.5,> 80,7.5,6.2,12.5,MIC (Pseudomonas aeruginosa [21]): 5 µg/mL; MIC (Streptococcus pneumoniae [22]): 10 µg/mL
